From BindingDB's records for doi:10.1021/acs.jmedchem.9b00500 (2019)
Bridge positions count the residues as written; N and C are the ends. Square brackets hold non-standard residues; d marks the D form. Peptide text beside a SMILES is read from it. I, II: the chains in the order shown. Phe(3,4-Cl2) = N[C@@H](Cc1ccc(Cl)c(Cl)c1)C(=O)O; tBuAla = CC(C)(C)C[C@H](N)C(=O)O; hLeu = CC(C)CC[C@H](N)C(=O)O; Nle = CCCC[C@H](N)C(=O)O

Target: Frizzled-7 (Homo sapiens, UniProt O75084)
Assay: Binding affinity to recombinant human Frizzled-7 (Gln33 to Leu185 residues)/human IgG1 chimeric protein expressed in CHO cells assessed as […] by SPR assay

SMILES | Kd [nM]
CSCC[C@H](NC(=O)[C@@H](CC1CCC1)NC(=O)[C@H](Cc1cnc[nH]1)NC(=O)[C@H](CSSC[C@H](NC(=O)[C@H](Cc1c[nH]c2ccccc12)NC(=O)[C@H](Cc1ccccc1)NC(=O)[C@H](CCC(=O)O)NC(=O)[C@H](CC(C)C)NC(=O)[C@H](CC(=O)O)NC(=O)[C@H](CC(=O)O)NC(=O)[C@H](CO)NC(C)=O)C(=O)N[C@@H](Cc1cnc[nH]1)C(=O)N[C@H](CC1CCC1)C(=O)N[C@@H](CCSC)C(=O)N[C@@H](Cc1ccc(O)cc1)C(N)=O)NC(=O)[C@H](Cc1c[nH]c2ccccc12)NC(=O)[C@H](Cc1ccccc1)NC(=O)[C@H](CCC(=O)O)NC(=O)[C@H](CC(C)C)NC(=O)[C@H](CC(=O)O)NC(=O)[C@H](CC(=O)O)NC(=O)[C@H](CO)NC(C)=O)C(=O)N[C@@H](Cc1ccc(O)cc1)C(N)=O | 2.1
CC[C@H](C)[C@H](NC(=O)[C@H](Cc1cnc[nH]1)NC(=O)[C@H](CSSCC[C@H](NC(=O)[C@H](Cc1c[nH]c2ccccc12)NC(=O)[C@H](CC(C)C)NC(=O)[C@H](CCC(=O)O)NC(=O)[C@H](CC(C)C)NC(=O)[C@H](CC(=O)O)NC(=O)[C@H](CC(=O)O)NC(=O)[C@@H](NC(C)=O)[C@@H](C)O)C(=O)N[C@@H](Cc1cnc[nH]1)C(=O)N[C@H](C(=O)N[C@@H](CCSC)C(=O)N[C@@H](Cc1ccc(O)cc1)C(N)=O)[C@@H](C)CC)NC(=O)[C@H](Cc1c[nH]c2ccccc12)NC(=O)[C@H](CC(C)C)NC(=O)[C@H](CCC(=O)O)NC(=O)[C@H](CC(C)C)NC(=O)[C@H](CC(=O)O)NC(=O)[C@H](CC(=O)O)NC(=O)[C@@H](NC(C)=O)[C@H](C)O)C(=O)N[C@@H](CCSC)C(=O)N[C@@H](Cc1ccc(O)cc1)C(N)=O | 6.3
CC[C@H](C)[C@H](NC(=O)[C@H](Cc1cnc[nH]1)NC(=O)[C@H](CSSC[C@H](NC(=O)[C@H](Cc1c[nH]c2ccccc12)NC(=O)[C@H](Cc1ccccc1)NC(=O)[C@H](CCC(=O)O)NC(=O)[C@H](CC(C)C)NC(=O)[C@H](CC(=O)O)NC(=O)[C@H](CC(=O)O)NC(=O)[C@H](CO)NC(C)=O)C(=O)N[C@@H](Cc1cnc[nH]1)C(=O)N[C@H](C(=O)N[C@@H](CCSC)C(=O)N[C@@H](Cc1ccc(O)cc1)C(N)=O)[C@@H](C)CC)NC(=O)[C@H](Cc1c[nH]c2ccccc12)NC(=O)[C@H](Cc1ccccc1)NC(=O)[C@H](CCC(=O)O)NC(=O)[C@H](CC(C)C)NC(=O)[C@H](CC(=O)O)NC(=O)[C@H](CC(=O)O)NC(=O)[C@H](CO)NC(C)=O)C(=O)N[C@@H](CCSC)C(=O)N[C@@H](Cc1ccc(O)cc1)C(N)=O (I: Ac-SDDLEFWCHIMY-NH2 / II: Ac-SDDLEFWCHIMY-NH2; disulfide I:8-II:8) | 0.96
CSCC[C@H](NC(=O)[C@@H](NC(=O)[C@H](Cc1cnc[nH]1)NC(=O)[C@H](CSSC[C@H](NC(=O)[C@H](Cc1c[nH]c2ccccc12)NC(=O)[C@H](Cc1ccccc1)NC(=O)[C@H](CCC(=O)O)NC(=O)[C@H](CC(C)C)NC(=O)[C@H](CC(=O)O)NC(=O)[C@H](CC(=O)O)NC(=O)[C@H](CO)NC(C)=O)C(=O)N[C@@H](Cc1cnc[nH]1)C(=O)N[C@H](C(=O)N[C@@H](CCSC)C(=O)N[C@@H](Cc1ccc(Cl)c(Cl)c1)C(N)=O)C(C)C)NC(=O)[C@H](Cc1c[nH]c2ccccc12)NC(=O)[C@H](Cc1ccccc1)NC(=O)[C@H](CCC(=O)O)NC(=O)[C@H](CC(C)C)NC(=O)[C@H](CC(=O)O)NC(=O)[C@H](CC(=O)O)NC(=O)[C@H](CO)NC(C)=O)C(C)C)C(=O)N[C@@H](Cc1ccc(Cl)c(Cl)c1)C(N)=O (I: Ac-SDDLEFWCHVM[Phe(3,4-Cl2)]-NH2 / II: Ac-SDDLEFWCHVM[Phe(3,4-Cl2)]-NH2; disulfide I:8-II:8) | 0.9
CCCC[C@H](NC(=O)[C@H](CC(=O)O)NC(=O)[C@H](CC(=O)O)NC(=O)[C@H](CO)NC(C)=O)C(=O)N[C@@H](CCC(=O)O)C(=O)N[C@@H](Cc1ccccc1)C(=O)N[C@@H](Cc1c[nH]c2ccccc12)C(=O)N[C@@H](CSSC[C@H](NC(=O)[C@H](Cc1c[nH]c2ccccc12)NC(=O)[C@H](Cc1ccccc1)NC(=O)[C@H](CCC(=O)O)NC(=O)[C@H](CCCC)NC(=O)[C@H](CC(=O)O)NC(=O)[C@H](CC(=O)O)NC(=O)[C@H](CO)NC(C)=O)C(=O)N[C@@H](Cc1cnc[nH]1)C(=O)N[C@H](C(=O)N[C@@H](CCSC)C(=O)N[C@@H](Cc1ccc(O)cc1)C(N)=O)C(C)C)C(=O)N[C@@H](Cc1cnc[nH]1)C(=O)N[C@H](C(=O)N[C@@H](CCSC)C(=O)N[C@@H](Cc1ccc(O)cc1)C(N)=O)C(C)C (I: Ac-SDD[Nle]EFWCHVMY-NH2 / II: Ac-SDD[Nle]EFWCHVMY-NH2; disulfide I:8-II:8) | 23
CSCC[C@H](NC(=O)[C@@H](NC(=O)[C@H](Cc1cnc[nH]1)NC(=O)[C@H](CSSC[C@H](NC(=O)[C@H](Cc1c[nH]c2ccccc12)NC(=O)[C@H](Cc1ccccc1)NC(=O)[C@H](CCC(=O)O)NC(=O)[C@H](CCC(C)C)NC(=O)[C@H](CC(=O)O)NC(=O)[C@H](CC(=O)O)NC(=O)[C@H](CO)NC(C)=O)C(=O)N[C@@H](Cc1cnc[nH]1)C(=O)N[C@H](C(=O)N[C@@H](CCSC)C(=O)N[C@@H](Cc1ccc(O)cc1)C(N)=O)C(C)C)NC(=O)[C@H](Cc1c[nH]c2ccccc12)NC(=O)[C@H](Cc1ccccc1)NC(=O)[C@H](CCC(=O)O)NC(=O)[C@H](CCC(C)C)NC(=O)[C@H](CC(=O)O)NC(=O)[C@H](CC(=O)O)NC(=O)[C@H](CO)NC(C)=O)C(C)C)C(=O)N[C@@H](Cc1ccc(O)cc1)C(N)=O (I: Ac-SDD[hLeu]EFWCHVMY-NH2 / II: Ac-SDD[hLeu]EFWCHVMY-NH2; disulfide I:8-II:8) | 124
CSCC[C@H](NC(=O)[C@@H](NC(=O)[C@H](Cc1cnc[nH]1)NC(=O)[C@H](CSSC[C@H](NC(=O)[C@H](Cc1c[nH]c2ccccc12)NC(=O)[C@H](Cc1ccccc1)NC(=O)[C@H](CCC(=O)O)NC(=O)[C@H](CC(C)(C)C)NC(=O)[C@H](CC(=O)O)NC(=O)[C@H](CC(=O)O)NC(=O)[C@H](CO)NC(C)=O)C(=O)N[C@@H](Cc1cnc[nH]1)C(=O)N[C@H](C(=O)N[C@@H](CCSC)C(=O)N[C@@H](Cc1ccc(O)cc1)C(N)=O)C(C)C)NC(=O)[C@H](Cc1c[nH]c2ccccc12)NC(=O)[C@H](Cc1ccccc1)NC(=O)[C@H](CCC(=O)O)NC(=O)[C@H](CC(C)(C)C)NC(=O)[C@H](CC(=O)O)NC(=O)[C@H](CC(=O)O)NC(=O)[C@H](CO)NC(C)=O)C(C)C)C(=O)N[C@@H](Cc1ccc(O)cc1)C(N)=O (I: Ac-SDD[tBuAla]EFWCHVMY-NH2 / II: Ac-SDD[tBuAla]EFWCHVMY-NH2; disulfide I:8-II:8) | 0.95
